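Method: 48-hour compound exposure of cells in 96-well plates, five concentrations, linear interpolation of endpoints. GI50 = concentration required for 50% inhibition of growth.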 The source made the active and inactive calls. No stated cut-off is given here; in the data, active = GI50 up to about 1.1 µM and inactive = higher.
How the values were obtained:
Experiment in all cases: NCI-60 cell line screen, 48 h
SR = system: SR
SK-MEL-28 = system: SK-MEL-28
BT-549 = system: BT-549
TK-10 = system: TK-10
KM12 = system: KM12
OVCAR-3 = system: OVCAR-3
HCC 2998 = system: HCC 2998
NCI-H522 = system: NCI-H522
T47D = system: T47D
UACC-257 = system: UACC-257
RXF 393 = system: RXF 393
A549 = system: A549
HOP-92 = system: HOP-92
A498 = system: A498
HT-29 = system: HT-29
MCF7 = system: MCF7
CCRF-CEM = system: CCRF-CEM
COLO 205 = system: COLO 205
UACC-62 = system: UACC-62

Compound | GI50 (SR) | GI50 (SK-MEL-28) | GI50 (BT-549) | GI50 (TK-10) | GI50 (KM12) | GI50 (OVCAR-3) | GI50 (HCC 2998) | GI50 (NCI-H522) | GI50 (T47D) | GI50 (UACC-257) | GI50 (RXF 393) | GI50 (A549) | GI50 (HOP-92) | GI50 (A498) | GI50 (HT-29) | GI50 (MCF7) | GI50 (CCRF-CEM) | GI50 (COLO 205) | GI50 (UACC-62)
Cc1ccc(S(=O)(=O)C2=C(C(C)C)N=NC2(C)C)cc1 | 29.3 µM (inactive) | > 100 µM (inactive) | 48.8 µM (inactive) | > 100 µM (inactive) | > 100 µM (inactive) | > 100 µM (inactive) | 73.6 µM (inactive) | 36 µM (inactive) | 60.1 µM (inactive) | > 100 µM (inactive) | 66.5 µM (inactive) | 81.3 µM (inactive) | 14.3 µM (inactive) | > 100 µM (inactive) | > 100 µM (inactive) | 62.7 µM (inactive) |  |  | 
CO/N=C(\C)c1cccc(Nc2c3ccccc3nc3occc23)c1 | 3.33 µM (inactive) | 5.35 µM (inactive) | 18.1 µM (inactive) | 20.4 µM (inactive) | 8.81 µM (inactive) | 4.72 µM (inactive) | 6.93 µM (inactive) | 3.66 µM (inactive) | 7.23 µM (inactive) | 12.5 µM (inactive) | 0.0454 µM (active) | 11.7 µM (inactive) | 14.3 µM (inactive) | 19.3 µM (inactive) | 4.47 µM (inactive) | 6.47 µM (inactive) | 5.42 µM (inactive) | 5.24 µM (inactive) | 7.55 µM (inactive)
CCOC(=O)CSc1nc(-c2ccc(OC)cc2)c(C#N)c(=O)[nH]1 | 84.9 µM (inactive) | > 100 µM (inactive) | > 100 µM (inactive) | > 100 µM (inactive) | > 100 µM (inactive) | > 100 µM (inactive) | > 100 µM (inactive) | > 100 µM (inactive) | > 100 µM (inactive) | > 100 µM (inactive) | > 100 µM (inactive) | > 100 µM (inactive) | > 100 µM (inactive) | > 100 µM (inactive) | > 100 µM (inactive) | > 100 µM (inactive) | > 100 µM (inactive) | > 100 µM (inactive) | > 100 µM (inactive)
COC(=O)C1=CO[C@@H](OC2OC(CO)C(O)C(O)C2O)[C@H]2[C@@H](C)[C@@H](O)[C@@H](O)[C@@H]12 (stereo partly specified) | 36.6 µM (inactive) | > 100 µM (inactive) | > 100 µM (inactive) | > 100 µM (inactive) | > 100 µM (inactive) | > 100 µM (inactive) | > 100 µM (inactive) | > 100 µM (inactive) | > 100 µM (inactive) | > 100 µM (inactive) | > 100 µM (inactive) | > 100 µM (inactive) | > 100 µM (inactive) | > 100 µM (inactive) | > 100 µM (inactive) | > 100 µM (inactive) |  | > 100 µM (inactive) | > 100 µM (inactive)
[N-]=[N+]=Nc1ccccc1-c1ccccc1[N+](=O)[O-] | 28.1 µM (inactive) | > 100 µM (inactive) | 32.3 µM (inactive) | 39.4 µM (inactive) | 49.2 µM (inactive) | 39.4 µM (inactive) |  | 14.9 µM (inactive) | 38.4 µM (inactive) | 25.4 µM (inactive) | 86.1 µM (inactive) | > 100 µM (inactive) | 72.1 µM (inactive) | 45 µM (inactive) | 44.3 µM (inactive) | 52 µM (inactive) |  |  | 74.3 µM (inactive)
COc1cc2c(cc1O)C(Cc1ccc(OCc3ccccc3)c(OCc3ccccc3)c1)N(C(=O)NCCc1ccccc1)CC2 (stereo unspecified) | 37.3 µM (inactive) |  | > 100 µM (inactive) | > 100 µM (inactive) | > 100 µM (inactive) | > 100 µM (inactive) | 86.9 µM (inactive) | 2.88 µM (inactive) | 16.4 µM (inactive) | > 100 µM (inactive) | > 100 µM (inactive) | 20.8 µM (inactive) | > 100 µM (inactive) | 78.5 µM (inactive) | > 100 µM (inactive) | 14.8 µM (inactive) | 15 µM (inactive) | > 100 µM (inactive) | > 100 µM (inactive)
COc1c(O)c(OC)c2oc(-c3ccc(O)cc3)c(OC)c(=O)c2c1O | 60.1 µM (inactive) | 81.8 µM (inactive) | 43.2 µM (inactive) | 61.5 µM (inactive) | 88.5 µM (inactive) | 14.8 µM (inactive) | 32 µM (inactive) | 26.1 µM (inactive) | 10.2 µM (inactive) | 76.2 µM (inactive) |  | 44.2 µM (inactive) |  | 30.3 µM (inactive) | 32.4 µM (inactive) | 41.7 µM (inactive) | 37.5 µM (inactive) | 99.5 µM (inactive) | 22.7 µM (inactive)
COc1ccc(-c2cc(-c3ccc(Nc4ccnc5cc(Cl)ccc45)cc3)nc(N)c2C#N)c2ccccc12 | > 100 µM (inactive) | > 100 µM (inactive) | > 100 µM (inactive) | > 100 µM (inactive) | > 100 µM (inactive) |  | > 100 µM (inactive) | > 100 µM (inactive) | > 100 µM (inactive) | > 100 µM (inactive) | > 100 µM (inactive) | > 100 µM (inactive) |  | > 100 µM (inactive) | > 100 µM (inactive) | > 100 µM (inactive) | > 100 µM (inactive) | > 100 µM (inactive) | > 100 µM (inactive)
CCn1c(SCC(=O)N/N=C2\SCC(=O)N2c2ccc(C)cc2)nc2ccccc2c1=O | 17.4 µM (inactive) | 20.6 µM (inactive) | > 10 µM (inactive) | 15 µM (inactive) | 19.4 µM (inactive) | 21.4 µM (inactive) | 36.8 µM (inactive) | 22.4 µM (inactive) | 25.1 µM (inactive) | 15.7 µM (inactive) | 17.4 µM (inactive) | 21.2 µM (inactive) |  | 20.8 µM (inactive) | 16.5 µM (inactive) | 20.6 µM (inactive) | 34 µM (inactive) | 50.9 µM (inactive) | 15.3 µM (inactive)
CCOC(=O)CNC1=NNS(=O)(=O)c2ccccc21 | 97.1 µM (inactive) | > 100 µM (inactive) | > 100 µM (inactive) | > 100 µM (inactive) | > 100 µM (inactive) | > 100 µM (inactive) | > 100 µM (inactive) | > 100 µM (inactive) | > 100 µM (inactive) | > 100 µM (inactive) | > 100 µM (inactive) | > 100 µM (inactive) | > 100 µM (inactive) | 20.8 µM (inactive) | > 100 µM (inactive) | > 100 µM (inactive) | 59.8 µM (inactive) | > 100 µM (inactive) | > 100 µM (inactive)
COc1ccc2nc3c(c(N)c2c1)C1CCC3C1(C)C (stereo unspecified) | 34.8 µM (inactive) | 30.8 µM (inactive) | > 100 µM (inactive) | 32.7 µM (inactive) | 42.9 µM (inactive) | 31.9 µM (inactive) | 17.5 µM (inactive) | 34.7 µM (inactive) | 22.7 µM (inactive) | 18.9 µM (inactive) | 23 µM (inactive) | 70.5 µM (inactive) | 16.4 µM (inactive) | 25.1 µM (inactive) | 23.8 µM (inactive) | 24 µM (inactive) | 14.1 µM (inactive) | 17.1 µM (inactive) | 15.3 µM (inactive)
Nn1c(-c2ccccc2)nn(C(=O)c2ccccc2)c1=O | > 100 µM (inactive) | > 100 µM (inactive) | > 100 µM (inactive) | > 100 µM (inactive) | > 100 µM (inactive) | > 100 µM (inactive) | > 100 µM (inactive) | > 100 µM (inactive) | > 100 µM (inactive) | > 100 µM (inactive) | > 100 µM (inactive) | > 100 µM (inactive) | > 100 µM (inactive) | > 100 µM (inactive) | > 100 µM (inactive) | > 100 µM (inactive) | > 100 µM (inactive) | > 100 µM (inactive) | 
O=C1CSC(c2ccc([N+](=O)[O-])cc2)N1c1ccc(-n2c(-c3ccccc3)nc3ccccc3c2=O)cc1 (stereo unspecified) | 14.6 µM (inactive) | > 100 µM (inactive) | 16.7 µM (inactive) | > 100 µM (inactive) | 31.7 µM (inactive) | > 100 µM (inactive) | 41 µM (inactive) | 40.8 µM (inactive) | 22.5 µM (inactive) | > 100 µM (inactive) |  | > 100 µM (inactive) |  | > 100 µM (inactive) | > 100 µM (inactive) | 73.5 µM (inactive) | > 100 µM (inactive) | > 100 µM (inactive) | 7.98 µM (inactive)
Nc1n[n+]([O-])c2ccc(Cl)cc2[n+]1[O-] | 32.5 µM (inactive) | 23.8 µM (inactive) | 13.2 µM (inactive) | 37.2 µM (inactive) | 16.1 µM (inactive) |  | 16.4 µM (inactive) | 15.3 µM (inactive) | 24.7 µM (inactive) | 17.9 µM (inactive) | 18.4 µM (inactive) | 20.4 µM (inactive) |  | 26.9 µM (inactive) | 25.8 µM (inactive) | 16.9 µM (inactive) | 22.4 µM (inactive) | 12.8 µM (inactive) | > 10 µM (inactive)
COc1cc2oc(=O)ccc2cc1CC=C(C)C [SUBEROSIN] | 21 µM (inactive) | 76.4 µM (inactive) | 24.4 µM (inactive) | 19.9 µM (inactive) | 36.9 µM (inactive) | 59.7 µM (inactive) | 31 µM (inactive) | 42.3 µM (inactive) | 15.8 µM (inactive) | 54.3 µM (inactive) | 16.9 µM (inactive) | 46.8 µM (inactive) | 18 µM (inactive) | 27.2 µM (inactive) | 22.6 µM (inactive) | 32.4 µM (inactive) | 44 µM (inactive) | 43.4 µM (inactive) | 

Source: ChEMBL document CHEMBL1201862, “PubChem BioAssay data set” (2004)
